Results from US20080051419A1, “AMINE DERIVATIVES USEFUL AS ANTICANCER AGENTS” (PFIZER INC., priority 2006, published 2008).
Like-named read-outs stand apart in the source and are kept apart here.

Target: T1, Akt1 (Homo sapiens, UniProt P31749, S473D)
T1 construct: The version of Akt used in these studies lacks the pleckstrin homology (PH) domain
Test: Akt1 kinase assay, fluorescence polarization (IMAP)
Type: biochemical
Procedure: The Akt1 kinase assay is based on the measurement of fluorescence polarization using IMAP technology (Molecular Devices Corporation #R8062). Two microliters of inhibitor compounds diluted to a concentration of 10 millimolar are added to column 2 of a polypropylene 96-well plate containing 98 microliters of 100% DMSO; the wells in columns 3-12 contain 60 microliters of 100% DMSO. The various test compounds are serially diluted 1:3 across the plate by pipetting 30 microliters of compounds into wells containing 60 microliters of 100% DMSO. Column 12 receives DMSO only and is used as a negative control for inhibition. The components of the wells are mixed and 15 microliters of each well are transferred to another 96-well plate already containing 60 microliters of reaction buffer (RB: 10 mM Tris-HCl, pH 7.5, 10 mM MgCl2, 0.1 mM EGTA, 0.01% Triton-X100 (Sigma #X-100), freshly added 1 mM DTT). After mixing, the […] reactions are assembled. First, five microliters of the above compound/reaction buffer mixture is transferred to the bottom of a 96-well black polystyrene reaction plate (Costar, #3694). Next, ten microliters of a solution containing 4 micromolar ATP and 40 nanomolar fluorescent-labeled Crosstide (Tamara-labeled […] peptide) are added. Then, 5 microliters (1.5 nanograms) of Akt protein in RB are added. The version of Akt used in these studies lacks the pleckstrin homology (PH) domain, and contains an aspartic acid residue in place of a serine residue in position 473 within the Akt1 hydrophobic motif. The Akt1 protein contains a polyhistidine tag at the amino terminus and is prephosphorylated on threonine at position 308 in order to activate latent kinase activity. Once the reaction components and inhibitors are assembled, the plates are gently tapped, covered with foil, and then incubated at ambient temperature for 30 minutes. IMAP beads (Molecular Devices) are then added (60 microliters of a 1:400 dilution of beads in RB). Plates are read on a Victor Plate Reader with the following settings: CW lamp filter: 544 nm, emission filter: 615 nm. Control values from wells lacking Akt protein are subtracted from the gross readings, and IC50 values are calculated using XLDA.

[1] = Table 3, read-out: Avg Akt kinase, μM (50% inhibition)
[2] = Table 1, concentration bins, read-out: Concentration Range at which exemplary compounds of formula I inhibit Akt kinase activity

T1 sequence (P31749 118-480 S473D limits assumed, species assumed): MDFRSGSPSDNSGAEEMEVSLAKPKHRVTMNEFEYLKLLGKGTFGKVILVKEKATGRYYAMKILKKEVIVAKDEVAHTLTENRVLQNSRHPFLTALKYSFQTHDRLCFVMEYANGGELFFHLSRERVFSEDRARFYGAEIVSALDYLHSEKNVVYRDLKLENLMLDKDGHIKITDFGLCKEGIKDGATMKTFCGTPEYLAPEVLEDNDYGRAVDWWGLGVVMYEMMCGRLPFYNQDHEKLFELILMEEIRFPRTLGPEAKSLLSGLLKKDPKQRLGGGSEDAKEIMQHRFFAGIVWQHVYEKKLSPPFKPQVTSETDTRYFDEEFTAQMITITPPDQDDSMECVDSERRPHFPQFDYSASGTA

Molecule | IC50 [1] [µM] | IC50 [2] [µM]
3-{[(4-chlorophenyl)amino]methyl}-1-(1H-pyrrolo[2,3-b]pyridin-4-yl)pyrrolidin-3-amine [Example 17] | 0.331 | –
CCc1c[nH]c2ncnc(N3CC[C@](N)(CNc4cc(C)on4)C3)c12 [Example 1, N—(((S)-3-amino-1-(5-ethyl-7H-pyrrolo[2,3-d]pyrimidin-4-yl)pyrrolidin-3-yl)methyl)-5-methylisoxazol-3-amine] | 0.0154 | 0.0101 to 0.1
Cc1c[nH]c2ncnc(N3CCC(N)(CNc4cccc(C(F)(F)F)c4F)C3)c12 (stereo not shown) [Example 3] | 0.0012 | 0.00025 to 0.0025
N#Cc1c[nH]c2ncnc(N3CCC(N)(CNc4ccc(Cl)cc4)C3)c12 (stereo not shown) [Example 4, 4-{3-amino-3-[(4-chloro-phenylamino)-methyl]-pyrrolidin-1-yl}-7H-pyrrolo[2,3-d]pyrimidine-5-carbonitrile] | 0.041 | 0.0101 to 0.1
COC(=O)c1ccccc1NCC1(N)CCN(c2ncnc3[nH]nc(C)c23)C1 (stereo not shown) [Example 5, 2-{[3-Amino-1-(3-methyl-1H-pyrazolo[3,4-d]pyrimidin-4-yl)-pyrrolidin-3-ylmethyl]-amino}-benzoic acid methyl ester] | 0.394 | 0.101 to 10
NC1(CNc2cccc(Oc3ccccc3)c2)CCN(c2ncnc3[nH]cc(Cl)c23)C1 (stereo not shown) [Example 6, 1-(5-Chloro-7H-pyrrolo[2,3-d]pyrimidin-4-yl)-3-[(3-phenoxy-phenylamino)-methyl]-pyrrolidin-3-ylamine] | 0.0134 | 0.0101 to 0.1
N#Cc1n[nH]c2ncnc(N3CCC(N)(CNc4cccc(Cl)c4F)C3)c12 (stereo not shown) [Example 7, 4-(3-amino-3-((3-chloro-2-fluorophenylamino)methyl)pyrrolidin-1-yl)-1H-pyrazolo[3,4-d]pyrimidine-3-carbonitrile] | 0.0523 | 0.0101 to 0.1
N#Cc1n[nH]c2ncnc(N3CCC(N)(CNc4cccc(Cl)c4)C3)c12 (stereo not shown) [Example 8, 4-{3-Amino-3-[(3-chloro-phenylamino)-methyl]-pyrrolidin-1-yl}-1H-pyrazolo[3,4-d]pyrimidine-3-carbonitrile] | 0.249 | 0.101 to 10
CCc1c[nH]c2ncnc(N3CCC(N)(CNc4cccc(C(F)(F)F)c4)C3)c12 (stereo not shown) [Example 9] | 0.002 | 0.00025 to 0.0025
Cc1ccn2ncnc(N3CCC(N)(CNc4cccc(Cl)c4Cl)C3)c12 (stereo not shown) [Example 10, 3-{[(2,3-dichlorophenyl)amino]methyl}-1-(5-methylpyrrolo[2,1-f][1,2,4]triazin-4-yl)pyrrolidin-3-amine] | 0.003 | 0.00251 to 0.01
N#Cc1c[nH]c2nccc(N3CCC(N)(CNc4ccccc4Oc4ccccc4)C3)c12 (stereo not shown) [Example 11, 4-(3-amino-3-{[(2-phenoxyphenyl)amino]methyl}pyrrolidin-1-yl)-1H-pyrrolo[2,3-b]pyridine-3-carbonitrile] | – | 0.00251 to 0.01
Cc1c[nH]c2ncnc(N3CCC(N)(CNc4ccc(S(=O)(=O)NCc5ccccc5)cc4)C3)c12 (stereo not shown) [Example 12, 4-({[3-amino-1-(5-methyl-7H-pyrrolo[2,3-d]pyrimidin-4-yl)pyrrolidin-3-yl]methyl}amino)-N-benzylbenzenesulfonamide] | 0.0105 | 0.0101 to 0.1
Cc1c[nH]c2ncnc(N3CC[C@](N)(CNc4cccc(C(F)(F)F)c4)C3)c12 [Example 13, (3S)-1-(5-methyl-7H-pyrrolo[2,3-d]pyrimidin-4-yl)-3-({[3-(trifluoromethyl)phenyl]amino}-methyl)pyrrolidin-3-amine] | 0.00226 | 0.00025 to 0.0025
NC1(CNc2cccc(C(F)(F)F)c2)CCN(c2ncnc3[nH]cnc23)C1 (stereo not shown) [Example 14, 1-(9H-purin-6-yl)-3-({[3-(trifluoromethyl)phenyl]amino}-methyl)pyrrolidin-3-amine] | 0.108 | 0.101 to 10
Cc1c[nH]c2ncnc(N3CCC(N)(CNc4ccccc4S(=O)(=O)N4CC[C@@H](F)C4)C3)c12 (stereo partly drawn) [Example 15, 3-{[(2-{[(3R)-3-fluoropyrrolidin-1-yl]sulfonyl}phenyl)amino]methyl}-1-(5-methyl-7H-pyrrolo[2,3-d]pyrimidin-4-yl)pyrrolidin-3-amine] | 0.0154 | 0.0101 to 0.1
Cc1c[nH]c2ncnc(N3CCC(N)(CNc4ccc(CC(N)=O)cc4)C3)c12 (stereo not shown) [Example 16, 2-[4-({[3-amino-1-(5-methyl-7H-pyrrolo[2,3-d]pyrimidin-4-yl)pyrrolidin-3-yl]methyl}amino)phenyl]-acetamide] | 0.0143 | 0.0101 to 0.1

The next lines start with the values.

IC50 [1] [µM] | IC50 [2] [µM] | Molecule
0.002 | 0.00025 to 0.0025 | Cc1c[nH]c2ncnc(N3CC[C@](N)(CNc4ccc(Cl)cc4)C3)c12 [Example 18, (3S)-3-{[(4-chlorophenyl)amino]methyl}-1-(5-methyl-7H-pyrrolo[2,3-d]pyrimidin-4-yl)pyrrolidin-3-amine]
0.01 | 0.00251 to 0.01 | COC(=O)c1ccccc1NCC1(N)CCN(c2ncnc3[nH]cc(C)c23)C1 (stereo not shown) [Example 19]
0.0155 | 0.0101 to 0.1 | Cc1c[nH]c2ncnc(N3CCC(N)(CNc4ccccc4Oc4ccccc4)C3)c12 (stereo not shown) [Example 20, 1-(5-methyl-7H-pyrrolo[2,3-d]pyrimidin-4-yl)-3-{[(2-phenoxyphenyl)amino]methyl}-pyrrolidin-3-amine]
0.00553 | 0.00251 to 0.01 | Cc1c[nH]c2ncnc(N3CCC(N)(CNc4cccc(Cl)c4F)C3)c12 (stereo not shown) [Example 21, 3-{[(3-chloro-2-fluorophenyl)amino]methyl}-1-(5-methyl-7H-pyrrolo[2,3-d]pyrimidin-4-yl)pyrrolidin-3-amine]
0.0161 | 0.0101 to 0.1 | Cc1c[nH]c2ncnc(N3CCC(N)(CNc4ccc(C#N)c(Cl)c4)C3)c12 (stereo not shown) [Example 22, 4-({[3-amino-1-(5-methyl-7H-pyrrolo[2,3-d]pyrimidin-4-yl)pyrrolidin-3-yl]methyl}amino)-2-chlorobenzonitrile]
0.00669 | 0.00251 to 0.01 | Cc1c[nH]c2ncnc(N3CCC(N)(CNc4cccc(C(F)(F)F)c4)C3)c12 (stereo not shown) [Example 23, 1-(5-methyl-7H-pyrrolo[2,3-d]pyrimidin-4-yl)-3-({[3-(trifluoromethyl)phenyl]amino}-methyl)pyrrolidin-3-amine]
0.0108 | 0.0101 to 0.1 | Cc1c[nH]c2ncnc(N3CCC(N)(CNc4ccccc4N4CCCCC4)C3)c12 (stereo not shown) [Example 24, 1-(5-methyl-7H-pyrrolo[2,3-d]pyrimidin-4-yl)-3-{[(2-piperidin-1-ylphenyl)amino]methyl}pyrrolidin-3-amine]
0.0145 | 0.0101 to 0.1 | Cc1c[nH]c2ncnc(N3CCC(N)(CNc4cccc(OC(F)(F)F)c4)C3)c12 (stereo not shown) [Example 25, 1-(5-methyl-7H-pyrrolo[2,3-d]pyrimidin-4-yl)-3-({[3-(trifluoromethoxy)phenyl]amino}methyl)pyrrolidin-3-amine]
0.002 | 0.00025 to 0.0025 | Cc1c[nH]c2ncnc(N3CCC(N)(CNc4cccc(Cl)c4Cl)C3)c12 (stereo not shown) [Example 26, 3-{[(2,3-dichlorophenyl)amino]methyl}-1-(5-methyl-7H-pyrrolo[2,3-d]pyrimidin-4-yl)pyrrolidin-3-amine]
5.29 | 0.101 to 10 | Cc1c[nH]c2ncnc(N3CCC(N)(CNc4ccccc4C(=O)NCc4ccccc4)C3)c12 (stereo not shown) [Example 27, 2-({[3-amino-1-(5-methyl-7H-pyrrolo[2,3-d]pyrimidin-4-yl)pyrrolidin-3-yl]methyl}amimo)-N-benzylbenzamide]
0.00952 | 0.00251 to 0.01 | Cc1c(F)cccc1NCC1(N)CCN(c2ncnc3[nH]cc(C)c23)C1 (stereo not shown) [Example 28, 3-{[(3-fluoro-2-methylphenyl)amino]methyl}-1-(5-methyl-7H-pyrrolo[2,3-d]pyrimidin-4-yl)pyrrolidin-3-amine]
0.0101 | 0.0101 to 0.1 | Cc1c[nH]c2ncnc(N3CCC(N)(CNc4ccccc4N4CCOCC4)C3)c12 (stereo not shown) [Example 29, 1-(5-methyl-7H-pyrrolo[2,3-d]pyrimidin-4-yl)-3-{[(2-morpholin-4-ylphenyl)amino]methyl}pyrrolidin-3-amine]
0.0135 | 0.0101 to 0.1 | COc1cc(NCC2(N)CCN(c3ncnc4[nH]cc(C)c34)C2)cc(C(F)(F)F)c1 (stereo not shown) [Example 30, 3-({[3-methoxy-5-(trifluoromethyl)phenyl]amino}-methyl)-1-(5-methyl-7H-pyrrolo[2,3-d]pyrimidin-4-yl)pyrrolidin-3-amine]
0.00514 | 0.00251 to 0.01 | Cc1c[nH]c2ncnc(N3CCC(N)(CNc4ccc(Cl)cc4F)C3)c12 (stereo not shown) [Example 31, 3-{[(4-chloro-2-fluorophenyl)amino]methyl}-1-(5-methyl-7H-pyrrolo[2,3-d]pyrimidin-4-yl)pyrrolidin-3-amine]
